Experimental data taken from US12091395B2, “Griseofulvin compound” (Daiichi Sankyo Company, Limited, priority 2016, dated 2024).

Test system: TNF-α
Experiment: Determination of TNF-α inhibition rate (LPS-induced inflammation in mice, serum TNF-α)
Type: in vivo
Details: Mus musculus, 1 h, oral 100 mg/kg in 0.5% methyl cellulose, LPS 0.4 mg/kg i.p. one hour later, serum TNF-α one hour after LPS
Protocol: A test substance was suspended in a 0.5%. (w/v) methyl cellulose and orally administered to mice at a dose of 100 mg/kg. One hour later, a lipopolysaccharide (LPS, Sigma-Aldrich, L2630 (trade name)) (0.4 mg/kg) was intraperitoneally administered to induce inflammation. One hour after administration of LPS, blood was taken from the vena cava under anesthesia with isoflurane, placed in a tube containing a serum separating agent, allowed to stand still at room temperature for 20-30 minutes and centrifuged at 4° C. at 12,000 rpm for 5 minutes to obtain the serum. Thereafter, the amount of the TNF-α in the serum was measured by using Mouse TNF-α Elisa Kit (Invitrogen, KMC3011C (trade name)) or Mouse TNF-α Immunoassay Kit (PerkinElmer, AL505 (trade name)) in accordance with the protocol of the kit. The serum was diluted 10 times with the dilution solution contained in the kit and put in use.
TNF-α inhibition rate (%) of the test substance was calculated in accordance with the following expression. TNF-α inhibition rate (%)=[(TNF-α amount of control group)−(TNF-α amount of test substance administration group)]×100/(TNF-α amount of control group)

Compound	inhibition in vivo at 100 mg/kg
COCCOc1cc(OC)c2c(c1Cl)O[C@]1(C2=O)C(OC)=CC(=O)C[C@H]1C [Example 2, (2S,5′R)-7-Chloro-3′,4-dimethoxy-6-(2-methoxyethoxy)-5′-methyl-spiro[benzofuran-2,4′-cyclohex-2-ene]-1′,3-dione]	71%
COC1=CC(=O)C[C@@H](C)[C@]12Oc1c(Cl)c(-c3nnc(C(C)(C)O)o3)cc(OC)c1C2=O [Example 8, (2S,5′R)-7-Chloro-6-[5-(1-hydroxy-1-methyl-ethyl)-1,3,4-oxadiazol-2-yl]-3′,4-dimethoxy-5′-methyl-spiro[benzofuran-2,4′-cyclohex-2-ene]-1′,3-dione]	38%
CCOc1cc(-c2nnc(C(C)(C)O)o2)c(Cl)c2c1C(=O)[C@@]1(O2)C(OC)=CC(=O)C[C@H]1C [Example 11, (2S,5′R)-7-Chloro-4-ethoxy-6-[5-(1-hydroxy-1-methyl-ethyl)-1,3,4-oxadiazol-2-yl]-3′-methoxy-5′-methyl-spiro[benzofuran-2,4′-cyclohex-2-ene]-1′,3-dione]	61%
COC1=CC(=O)C[C@@H](C)[C@]12Oc1c(Cl)c(-c3nnc(C)o3)cc(OC)c1C2=O [Example 5, (2S,5′R)-7-Chloro-3′,4-dimethoxy-5′-methyl-6-(5-methyl-1,3,4-oxadiazol-2-yl)spiro[benzofuran-2,4′-cyclohex-2-ene]-1′,3-dione]	70%
CCn1ccc(-c2cc(OC)c3c(c2Cl)O[C@]2(C3=O)C(OC)=CC(=O)C[C@H]2C)n1 [Example 4, (2S,5′R)-7-Chloro-6-(1-ethylpyrazol-3-yl)-3′,4-dimethoxy-5′-methyl-spiro[benzofuran-2,4′-cyclohex-2-ene]-1′,3-dione]	73%
COC1=CC(=O)C[C@@H](C)[C@]12Oc1c(Cl)c(-c3nnc(C)o3)cc(OCCO)c1C2=O [Example 14, (2S,5′R)-7-Chloro-4-(2-hydroxyethoxy)-3′-methoxy-5′-methyl-6-(5-methyl-1,3,4-oxadiazol-2-yl)spiro[benzofuran-2,4′-cyclohex-2-ene]-1′,3-dione]	24%
COC1=CC(=O)C[C@@H](C)[C@]12Oc1c(Cl)c(-c3nnc([C@H](C)O)o3)cc(OC)c1C2=O [Example 9, (2S,5′R)-7-Chloro-6-[5-[(1S)-1-hydroxyethyl]-1,3,4-oxadiazol-2-yl]-3′,4-dimethoxy-5′-methyl-spiro[benzofuran-2,4′-cyclohex-2-ene]-1′,3-dione]	65%
COC1=CC(=O)C[C@@H](C)[C@]12Oc1c(Cl)c(-c3nc(C)no3)cc(OCCO)c1C2=O [Example 15, (2S,5′R)-7-Chloro-4-(2-hydroxyethoxy)-3′-methoxy-5′-methyl-6-(3-methyl-1,2,4-oxadiazol-5-yl)spiro[benzofuran-2,4′-cyclohex-2-ene]-1′,3-dione]	55%
COC1=CC(=O)C[C@@H](C)[C@]12Oc1c(Cl)c(-c3ccn(C)n3)cc(OC)c1C2=O [Example 3, (2S,5′R)-7-Chloro-3′,4-dimethoxy-5′-methyl-6-(1-methylpyrazol-3-yl)spiro[benzofuran-2,4′-cyclohex-2-ene]-1′,3-dione]	65%
COC1=CC(=O)C[C@@H](C)[C@]12Oc1c(Cl)c(OCCO)cc(OC)c1C2=O [Example 1, (2S,5′R)-7-Chloro-6-(2-hydroxyethoxy)-3′,4-dimethoxy-5′-methyl-spiro[benzofuran-2,4′-cyclohex-2-ene]-1′,3-dione]	62%
COC1=CC(=O)C[C@@H](C)[C@]12Oc1c(Cl)c(-c3noc(C)n3)cc(OCCO)c1C2=O [Example 16, (2S,5′R)-7-Chloro-4-(2-hydroxyethoxy)-3′-methoxy-5′-methyl-6-(5-methyl-1,2,4-oxadiazol-3-yl)spiro[benzofuran-2,4′-cyclohex-2-ene]-1′,3-dione]	62%
COC1=CC(=O)C[C@@H](C)[C@]12Oc1c(Cl)c(-c3nnc([C@@H](C)O)o3)cc(OC)c1C2=O [Example 10, (2S,5′R)-7-Chloro-6-[5-[(1R)-1-hydroxyethyl]-1,3,4-oxadiazol-2-yl]-3′,4-dimethoxy-5′-methyl-spiro[benzofuran-2,4′-cyclohex-2-ene]-1′,3-dione]	58%
COC1=CC(=O)C[C@@H](C)[C@]12Oc1c(Cl)c(OC)cc(OC)c1C2=O [Griseofulvin]	19%
COC1=CC(=O)C[C@@H](C)[C@]12Oc1c(Cl)c(-c3nc(C)no3)cc(OC)c1C2=O [Example 6, (2S,5′R)-7-Chloro-3′,4-dimethoxy-5′-methyl-6-(3-methyl-1,2,4-oxadiazol-5-yl)spiro[benzofuran-2,4′-cyclohex-2-ene]-1′,3-dione]	55%
COC1=CC(=O)C[C@@H](C)[C@]12Oc1c(Cl)c(-c3noc(C)n3)cc(OC)c1C2=O [Example 7, (2S,5′R)-7-Chloro-3′,4-dimethoxy-5′-methyl-6-(5-methyl-1,2,4-oxadiazol-3-yl)spiro[benzofuran-2,4′-cyclohex-2-ene]-1′,3-dione]	65%
CCOc1cc(-c2nnc([C@H](C)O)o2)c(Cl)c2c1C(=O)[C@@]1(O2)C(OC)=CC(=O)C[C@H]1C [Example 12, (2S,5′R)-7-Chloro-4-ethoxy-6-[5-[(1S)-1-hydroxyethyl]-1,3,4-oxadiazol-2-yl]-3′-methoxy-5′-methyl-spiro[benzofuran-2,4′-cyclohex-2-ene]-1′,3-dione]	61%
COC1=CC(=O)C[C@@H](C)[C@]12Oc1c(Cl)c(-c3nc(C(C)O)no3)cc(OC)c1C2=O (stereo partly drawn) [Example 13, (2S,5′R)-7-Chloro-6-[3-(l-hydroxyethyl)-1,2,4-oxadiazol-5-yl]-3′,4-dimethoxy-5′-methyl-spiro[benzofuran-2,4′-cyclohex-2-ene]-1′,3-dione]	82%
